What was measured:
T47D cells = test: Cell Proliferation Assay (GI50), sulforhodamine B (SRB) assay; assay type: cell-based; details: for GI50: Homo sapiens, 120 hours, SRB
Description: Cell growth was assessed using the sulforhodamine B (SRB) assay (A). T47D (ECACC, 85102201) cells were routinely passaged in RPMI (Invitrogen, 42401018) plus 10% foetal calf serum (FCS), 1% L-glutamine (Gibco BRL, 25030) to a confluence not greater than 80%. To undertake the assay, T47D cells were seeded at 2.5×10^3 cells/well in […] RPMI plus 10% foetal calf serum, 1% L-glutamine in 96 well plates (Costar, 3904) and incubated at 37° C. (+5% CO2) in a humidified incubator. Once the cells had fully adhered (typically following 4-5 hours incubation) the plate was removed from the incubator and 10 μL of the diluent added to the control wells (A1-12 and B1-12). Compound was prepared in a six point semi-log dilution at 10× the final concentration required e.g. for a 6 point range of 30 μM to 100 nM in semi-log steps dilution started at 300 μM in stock plate. Dosing was completed by addition of 10 μL of compound at highest concentration to C1-12 through to the lowest concentration in H1-12. The plates were then incubated for 120 hours prior to SRB analysis.
Upon completion of incubation, media was removed and the cells fixed with […] of ice cold 10% (w/v) trichloroacetic acid. The plates were incubated at 4° C. for 20 minutes and then washed four times with water. Each well of cells was then stained with 100 μl of 0.4% (w/v) SRB (Sulforhodamine B, Sigma, Poole, Dorset, UK, Catalogue number S-9012) in 1% acetic acid for 20 minutes before washing four times with 1% acetic acid. Plates were then dried for 2 hours at room temperature. The dye from the stained cells was solubilized by the addition of 100 μl of 10 mM Tris Base into each well. Plates were gently shaken and left at room temperature for 30 minutes before measuring the optical density at 564 nm on a Microquant microtiter plate reader. The concentration of inhibitor eliciting a 50% reduction in growth (GI50) was determined by analysis of staining intensity of the treated cells as a percentage of the vehicle control wells using Excelfit software.
(A) Skehan, P., Storung, R., Scudiero, R., Monks, A., McMahon, J., Vistica, D., Warren, J. T., Bokesch, H., Kenny, S. and Boyd, M. R. (1990) New […] cytotoxicity assay for anticancer-drug screening. J. Natl. Cancer Inst. 82, 1107-1112.

mTOR = target: T1, mTOR (Homo sapiens, UniProt P42345); test: Biological Assay: mTOR enzyme activity, mTOR immunoprecipitated from HeLa cell cytoplasmic extract, recombinant PHAS-1 as substrate; assay type: biochemical; details: Biological Assay; for IC50: upper bounds, read-out: IC50 values against mTOR
T1 construct: mTOR protein was isolated from HeLa cell cytoplasmic extract by immunoprecipitation; endogenous in cells; host or cells: HeLa cell cytoplasmic extract (immunoprecipitate)

Row | SMILES | GI50 (T47D cells; upper bounds) | IC50 (mTOR) | GI50 (T47D cells) | GI50 of Comparative Examples compared to the corresponding Examples (T47D cells; comparison in words) | IC50 of Comparative Examples compared to the corresponding Examples (mTOR; comparison in words)
1 | COc1ccc(-c2ccc3c(N4CCOCC4)nc(N4C[C@@H](C)O[C@@H](C)C4)nc3n2)cc1CN[C@H](CO)CCSC [Example 8bd] | < 300 nM | < 1000 nM | – | – | –
2 | COc1ccc(CCNCc2cc(-c3ccc4c(N5CCOCC5)nc(N5C[C@@H](C)O[C@@H](C)C5)nc4n3)ccc2OC)cc1 [Example 8e] | – | < 100 nM | < 1000 nM | – | –
3 | COc1ccc(-c2ccc3c(N4CCOCC4)nc(N4C[C@@H](C)O[C@@H](C)C4)nc3n2)cc1CNCCC(C)C [Example 8m] | – | < 100 nM | < 1000 nM | – | –
4 | COc1ccc(-c2ccc3c(N4CCOCC4)nc(N4C[C@@H](C)O[C@@H](C)C4)nc3n2)cc1CNCc1cccc(CN)c1 [Example 8ap] | < 300 nM | < 100 nM | – | – | –
5 | COc1ccc(-c2ccc3c(N4CCOCC4)nc(N4C[C@@H](C)O[C@@H](C)C4)nc3n2)cc1CNCCCc1ccccc1 [Example 8bc] | < 300 nM | < 100 nM | – | – | –
6 | C=CCOC(=O)[C@H](CC(C)C)NCc1cc(-c2ccc3c(N4CCOCC4)nc(N4C[C@@H](C)O[C@@H](C)C4)nc3n2)ccc1OC [Example 8af] | < 300 nM | < 1000 nM | – | – | –
7 | COc1ccc(-c2ccc3c(N4CCOCC4)nc(N4C[C@@H](C)O[C@@H](C)C4)nc3n2)cc1CNCc1ccc(F)cc1 [Example 8ah] | < 300 nM | < 100 nM | – | – | –
8 | COc1ccc(-c2ccc3c(N4CCOCC4)nc(N4C[C@@H](C)O[C@@H](C)C4)nc3n2)cc1CNC(Cc1ccc(O)cc1)C(=O)O (stereo partly shown) [Example 8ar] | < 300 nM | < 100 nM | – | – | –
9 | COc1ccc(-c2ccc3c(N4CCOCC4)nc(N4C[C@@H](C)O[C@@H](C)C4)nc3n2)cc1CNc1ccc(N2CCOCC2)cc1 [Example 8ay] | < 300 nM | < 1000 nM | – | – | –
10 | COc1ccc(-c2ccc3c(N4CCOCC4)nc(N4C[C@@H](C)O[C@@H](C)C4)nc3n2)cc1CNc1cc[nH]n1 [Example 8al] | < 300 nM | < 100 nM | – | – | –
11 | COc1ccc(-c2ccc3c(N4CCOCC4)nc(N4C[C@@H](C)O[C@@H](C)C4)nc3n2)cc1CNC(C)CO (stereo partly shown) [Example 8aq] | < 300 nM | < 100 nM | – | – | –
12 | COc1ccc(-c2ccc3c(N4CCOCC4)nc(N4C[C@@H](C)O[C@@H](C)C4)nc3n2)cc1CNCc1ccc2c(c1)OCO2 [Example 8bg] | < 300 nM | < 100 nM | – | – | –
13 | CCOC(=O)C1CCCCC1NCc1cc(-c2ccc3c(N4CCOCC4)nc(N4C[C@@H](C)O[C@@H](C)C4)nc3n2)ccc1OC (stereo partly shown) [Example 8ac] | – | < 100 nM | < 1000 nM | – | –
14 | COc1ccc(-c2ccc3c(N4CCOCC4)nc(N4C[C@@H](C)O[C@@H](C)C4)nc3n2)cc1CNc1ccc(OCc2ccccc2)cc1 [Example 8ba] | < 300 nM | < 1000 nM | – | – | –
15 | COC[C@H](Cc1ccccc1)NCc1cc(-c2ccc3c(N4CCOCC4)nc(N4C[C@@H](C)O[C@@H](C)C4)nc3n2)ccc1OC [Example 8be] | < 300 nM | < 100 nM | – | – | –
16 | COc1ccc(-c2ccc3c(N4CCOCC4)nc(N4CCOC[C@@H]4C)nc3n2)cc1CO [Comparative Example 1a, reference compound] | – | – | – | GI50 Comparative Example 1a>GI50 Example 11a | IC50 Comparative Example 1a>IC50 Example 11a
17 | COc1ccc(-c2ccc3c(N4CCOCC4)nc(N4C[C@@H](C)O[C@@H](C)C4)nc3n2)cc1CNCC1CCCO1 (stereo partly shown) [Example 8aj] | < 300 nM | < 100 nM | – | – | –
18 | COc1ccc(-c2ccc3c(N4CCOCC4)nc(N4C[C@@H](C)O[C@@H](C)C4)nc3n2)cc1CNCCC(C)(C)C [Example 8q] | – | < 1000 nM | < 1000 nM | – | –
19 | COc1ccc(-c2ccc3c(N4CCOCC4)nc(N4C[C@@H](C)O[C@@H](C)C4)nc3n2)cc1CN[C@H](C)c1ccc([N+](=O)[O-])cc1 [Example 8au] | < 300 nM | < 1000 nM | – | – | –
20 | CCOCCCNCc1cc(-c2ccc3c(N4CCOCC4)nc(N4C[C@@H](C)O[C@@H](C)C4)nc3n2)ccc1OC [Example 8s] | – | < 1000 nM | < 1000 nM | – | –
21 | COc1ccc(-c2ccc3c(N4CCOCC4)nc(N4C[C@@H](C)O[C@@H](C)C4)nc3n2)cc1CNCCc1cccs1 [Example 8an] | < 300 nM | < 100 nM | – | – | –
22 | COc1ccc(-c2ccc3c(N4CCOCC4)nc(N4C[C@@H](C)O[C@@H](C)C4)nc3n2)cc1CNCCc1cnc[nH]1 [Example 8c] | – | < 100 nM | < 1000 nM | – | –
23 | CCCCNCc1cc(-c2ccc3c(N4CCOCC4)nc(N4C[C@@H](C)O[C@@H](C)C4)nc3n2)ccc1OC [Example 8l] | < 300 nM | < 100 nM | – | – | –
24 | COc1ccc(-c2ccc3c(N4CCOCC4)nc(N4C[C@@H](C)O[C@@H](C)C4)nc3n2)cc1CNCc1cccc(OC)c1OC [Example 8z] | – | < 10000 nM | < 1000 nM | – | –
25 | COc1ccc(-c2ccc3c(N4CCOCC4)nc(N4C[C@@H](C)O[C@@H](C)C4)nc3n2)cc1CNCCSCc1ccc(CN(C)C)o1 [Example 8ae] | < 300 nM | < 1000 nM | – | – | –
26 | CCCCCOc1ccc(NCc2cc(-c3ccc4c(N5CCOCC5)nc(N5C[C@@H](C)O[C@@H](C)C5)nc4n3)ccc2OC)cc1 [Example 8bf] | < 300 nM | < 1000 nM | – | – | –
27 | COC(=O)[C@H](NCc1cc(-c2ccc3c(N4CCOCC4)nc(N4C[C@@H](C)O[C@@H](C)C4)nc3n2)ccc1OC)c1ccccc1 [Example 8ao] | < 300 nM | < 1000 nM | – | – | –
28 | COc1ccc(-c2ccc3c(N4CCOCC4)nc(N4C[C@@H](C)O[C@@H](C)C4)nc3n2)cc1CNCc1cccc([N+](=O)[O-])c1 [Example 8at] | < 300 nM | < 1000 nM | – | – | –
29 | CCSCCNCc1cc(-c2ccc3c(N4CCOCC4)nc(N4C[C@@H](C)O[C@@H](C)C4)nc3n2)ccc1OC [Example 8ak] | < 300 nM | < 100 nM | – | – | –

More lines, main results first:

Row | GI50 (T47D cells; upper bounds) | IC50 (mTOR) | GI50 (T47D cells) | SMILES | GI50 of Comparative Examples compared to the corresponding Examples (T47D cells; comparison in words) | IC50 of Comparative Examples compared to the corresponding Examples (mTOR; comparison in words)
30 | < 300 nM | < 100 nM | – | COc1ccc(-c2ccc3c(N4CCOCC4)nc(N4C[C@@H](C)O[C@@H](C)C4)nc3n2)cc1CNC1CCCC1 [Example 8k] | – | –
31 | – | < 100 nM | < 1000 nM | COc1ccc(-c2ccc3c(N4CCOCC4)nc(N4C[C@@H](C)O[C@@H](C)C4)nc3n2)cc1CNC1CCCCCCC1 [Example 8n] | – | –
32 | < 300 nM | < 100 nM | – | COc1ccc(-c2ccc3c(N4CCOCC4)nc(N4C[C@@H](C)O[C@@H](C)C4)nc3n2)cc1CNCc1ccc([35Cl])cc1[35Cl] [Example 8aw] | – | –
33 | < 300 nM | < 100 nM | – | COc1ccc(-c2ccc3c(N4CCOCC4)nc(N4C[C@@H](C)O[C@@H](C)C4)nc3n2)cc1CNC1CC1 [Example 8b] | – | –
34 | – | < 100 nM | < 1000 nM | COc1ccc(-c2ccc3c(N4CCOCC4)nc(N4C[C@@H](C)O[C@@H](C)C4)nc3n2)cc1CNCC1CCCCC1O (stereo partly shown) [Example 8aa] | – | –
35 | – | < 100 nM | < 1000 nM | COc1ccc(-c2ccc3c(N4CCOCC4)nc(N4C[C@@H](C)O[C@@H](C)C4)nc3n2)cc1CNC1CCCCC1 [Example 8o] | – | –
36 | < 300 nM | < 100 nM | – | COc1ccc(-c2ccc3c(N4CCOCC4)nc(N4C[C@@H](C)O[C@@H](C)C4)nc3n2)cc1CNC1CCc2ccccc21 (stereo partly shown) [Example 8av] | – | –
37 | < 300 nM | < 100 nM | – | C[C@H]1CCCCN1c1nc(N2CCOCC2)c2ccc(-c3ccc(Cl)cc3)nc2n1 [Example 1g] | – | –
38 | < 300 nM | < 100 nM | – | COc1ccc(-c2ccc3c(N4CCOCC4)nc(N4C[C@@H](C)O[C@@H](C)C4)nc3n2)cc1CNC1CCCC(C)C1C (stereo partly shown) [Example 8ag] | – | –
39 | – | < 1000 nM | < 1000 nM | COc1ccc(-c2ccc3c(N4CCOCC4)nc(N4C[C@@H](C)O[C@@H](C)C4)nc3n2)cc1CNC1CCC(C)CC1 (stereo partly shown) [Example 8p] | – | –
40 | < 300 nM | < 1000 nM | – | COc1ccc(-c2ccc3c(N4CCOCC4)nc(N4C[C@@H](C)O[C@@H](C)C4)nc3n2)cc1CNC(C)C [Example 8r] | – | –
41 | < 300 nM | < 100 nM | – | COc1ccc(-c2ccc3c(N4CCOCC4)nc(N4C[C@@H](C)O[C@@H](C)C4)nc3n2)cc1CNCC1CCCCCC1O (stereo partly shown) [Example 8ab] | – | –
42 | < 300 nM | < 100 nM | – | COc1ccc(-c2ccc3c(N4CCOCC4)nc(N4C[C@@H](C)O[C@@H](C)C4)nc3n2)cc1CNC1CCOCC1 [Example 8i] | – | –
43 | < 300 nM | < 100 nM | – | COc1ccc(-c2ccc3c(N4CCOCC4)nc(N4C[C@@H](C)O[C@@H](C)C4)nc3n2)cc1CNC1CCC1 [Example 8a] | – | –
44 | < 300 nM | < 100 nM | – | COc1ccc(-c2ccc3c(N4CCOCC4)nc(N4C[C@@H](C)O[C@@H](C)C4)nc3n2)cc1CNCc1ccccc1[35Cl] [Example 8ax] | – | –

Source: patent US20080194546A1, “Pyrido-, Pyrazo- and Pyrimido-Pyrimidine Derivatives as mTOR Inhibitors” (KuDOS Pharmaceuticals Limited, priority 2005, published 2008)
